Data reported in patent US9902736B2, “1-oxo/acylation-14-acylated oridonin derivative, preparation method therefor and application thereof” (HANGZHOU BENSHENG PHARMACEUTICAL CO., LTD., priority 2012, dated 2018).
Converted amounts (≈) assume the structure as drawn.

test system: RPMI 8226; experiment: Multiple myeloma cell growth inhibition, MTT, 72 h; type: cell-based; conditions: Homo sapiens
Method: Multiple myeloma cell lines: RPMI8226 (multiple myeloma), purchased from Fuxiang Bio-tech Co. Ltd., Shanghai, China.
(§1) 6000 well-growing cells were obtained and inoculated into wells of a 96-well cell culture plate. […] On the next day, the 1-oxo/acylated-14-acylated oridonin derivatives of different concentrations were added and mixed uniformly. The plate was placed in a carbon dioxide cell incubator (5% CO2) at 37° C. and incubated for 72 hours. Then the viable cell concentration was determined by MTT method.

IC50 [µg/mL] | IC90 [µg/mL] | SMILES
0.37 (≈ 0.783 µM) | 2.59 (≈ 5.48 µM) | C=C1C(=O)[C@]23[C@H](OC(=O)c4cccs4)[C@H]1CC[C@H]2[C@@]12CO[C@@]3(O)[C@@H](O)[C@@H]1C(C)(C)CCC2=O [BS-OR-007]

test system: Hep-2; experiment: Solid tumor cell growth inhibition, MTT, 72 h; type: cell-based, human; conditions: Homo sapiens, HEp-2; 72 h, MTT
Method: (§2) 6000 well-growing human solid tumor cells were obtained and inoculated into wells of a 96-well cell culture plate. The culture medium was DMEM High Glucose cell culture medium containing 10% fetal bovine serum. The plate was placed in a carbon dioxide cell incubator (5% CO2) at 37° C. and incubated for 24 hours. After added with 1-oxo/acylated-14-acylated oridonin derivatives of different concentration and mixed uniformly, the plate was placed in a carbon dioxide cell incubator (5% CO2) at 37° C. and incubated for 72 hours. Then the viable cell concentration was determined by MTT method.

IC50 [µg/mL] | IC90 [µg/mL] | SMILES
1.76 (≈ 3.72 µM) | 9.2 (≈ 19.5 µM) | C=C1C(=O)[C@]23[C@H](OC(=O)c4cccs4)[C@H]1CC[C@H]2[C@@]12CO[C@@]3(O)[C@@H](O)[C@@H]1C(C)(C)CCC2=O [BS-OR-007]

test system: MGC-803; experiment: Solid tumor cell growth inhibition, MTT, 72 h; type: cell-based, human; conditions: Homo sapiens, MGC-803; 72 h, MTT
Method: as §2

IC50 [µg/mL] | IC90 [µg/mL] | SMILES
0.95 (≈ 2.01 µM) | 9.79 (≈ 20.7 µM) | C=C1C(=O)[C@]23[C@H](OC(=O)c4cccs4)[C@H]1CC[C@H]2[C@@]12CO[C@@]3(O)[C@@H](O)[C@@H]1C(C)(C)CCC2=O [BS-OR-007]

test system: CNE; experiment: Solid tumor cell growth inhibition, MTT, 72 h; type: cell-based, human; conditions: Homo sapiens, CNE; 72 h, MTT
Method: as §2

IC50 [µg/mL] | IC90 [µg/mL] | SMILES
1.33 (≈ 2.81 µM) | 5.16 (≈ 10.9 µM) | C=C1C(=O)[C@]23[C@H](OC(=O)c4cccs4)[C@H]1CC[C@H]2[C@@]12CO[C@@]3(O)[C@@H](O)[C@@H]1C(C)(C)CCC2=O [BS-OR-007]

test system: Hela; experiment: Solid tumor cell growth inhibition, MTT, 72 h; type: cell-based, human; conditions: Homo sapiens, HeLa; 72 h, MTT
Method: as §2

IC50 [µg/mL] | IC90 [µg/mL] | SMILES
1.64 (≈ 3.47 µM) | 4.92 (≈ 10.4 µM) | C=C1C(=O)[C@]23[C@H](OC(=O)c4cccs4)[C@H]1CC[C@H]2[C@@]12CO[C@@]3(O)[C@@H](O)[C@@H]1C(C)(C)CCC2=O [BS-OR-007]

test system: SK-OV-3; experiment: Solid tumor cell growth inhibition, MTT, 72 h; type: cell-based; conditions: Homo sapiens, SK-OV-3; 72 h, MTT; read-out: IC50 SK-OV-3
Method: as §2

IC50 [µg/mL] | SMILES
1.69 (≈ 3.58 µM) | C=C1C(=O)[C@]23[C@H](OC(=O)c4cccs4)[C@H]1CC[C@H]2[C@@]12CO[C@@]3(O)[C@@H](O)[C@@H]1C(C)(C)CCC2=O [BS-OR-007]

same assay, conditions: Homo sapiens, SK-OV-3; 72 h, MTT; read-out: IC90 SK-OV-3

IC90 [µg/mL] | SMILES
4.6 (≈ 9.73 µM) | C=C1C(=O)[C@]23[C@H](OC(=O)c4cccs4)[C@H]1CC[C@H]2[C@@]12CO[C@@]3(O)[C@@H](O)[C@@H]1C(C)(C)CCC2=O [BS-OR-007]

test system: Hep G2; experiment: Solid tumor cell growth inhibition, MTT, 72 h; type: cell-based; conditions: Homo sapiens, HepG2
Method: as §2

IC50 [µg/mL] | IC90 [µg/mL] | SMILES
1.54 (≈ 3.26 µM) | 10.8 (≈ 22.9 µM) | C=C1C(=O)[C@]23[C@H](OC(=O)c4cccs4)[C@H]1CC[C@H]2[C@@]12CO[C@@]3(O)[C@@H](O)[C@@H]1C(C)(C)CCC2=O [BS-OR-007]

test system: A549; experiment: Solid tumor cell growth inhibition, MTT, 72 h; type: cell-based; conditions: Homo sapiens
Method: as §2

IC50 [µg/mL] | IC90 [µg/mL] | SMILES
2.13 (≈ 4.51 µM) | 5.34 (≈ 11.3 µM) | C=C1C(=O)[C@]23[C@H](OC(=O)c4cccs4)[C@H]1CC[C@H]2[C@@]12CO[C@@]3(O)[C@@H](O)[C@@H]1C(C)(C)CCC2=O [BS-OR-007]

test system: CaEs-17; experiment: Solid tumor cell growth inhibition, MTT, 72 h; type: cell-based; conditions: Homo sapiens, CaEs17
Method: as §2

IC50 [µg/mL] | IC90 [µg/mL] | SMILES
0.93 (≈ 1.97 µM) | 5.32 (≈ 11.3 µM) | C=C1C(=O)[C@]23[C@H](OC(=O)c4cccs4)[C@H]1CC[C@H]2[C@@]12CO[C@@]3(O)[C@@H](O)[C@@H]1C(C)(C)CCC2=O [BS-OR-007]

test system: RKO; experiment: Solid tumor cell growth inhibition, MTT, 72 h; type: cell-based; conditions: Homo sapiens
Method: as §2

IC50 [µg/mL] | IC90 [µg/mL] | SMILES
0.43 (≈ 0.91 µM) | 0.95 (≈ 2.01 µM) | C=C1C(=O)[C@]23[C@H](OC(=O)c4cccs4)[C@H]1CC[C@H]2[C@@]12CO[C@@]3(O)[C@@H](O)[C@@H]1C(C)(C)CCC2=O [BS-OR-007]

test system: Becap-37; experiment: Solid tumor cell growth inhibition, MTT, 72 h; type: cell-based; conditions: Homo sapiens
Method: as §2

IC50 [µg/mL] | IC90 [µg/mL] | SMILES
1.02 (≈ 2.16 µM) | 3.8 (≈ 8.04 µM) | C=C1C(=O)[C@]23[C@H](OC(=O)c4cccs4)[C@H]1CC[C@H]2[C@@]12CO[C@@]3(O)[C@@H](O)[C@@H]1C(C)(C)CCC2=O [BS-OR-007]

test system: MG-63; experiment: Solid tumor cell growth inhibition, MTT, 72 h; type: cell-based; conditions: Homo sapiens
Method: as §2

IC50 [µg/mL] | IC90 [µg/mL] | SMILES
0.42 (≈ 0.889 µM) | 0.96 (≈ 2.03 µM) | C=C1C(=O)[C@]23[C@H](OC(=O)c4cccs4)[C@H]1CC[C@H]2[C@@]12CO[C@@]3(O)[C@@H](O)[C@@H]1C(C)(C)CCC2=O [BS-OR-007]

test system: U87-MG; experiment: Solid tumor cell growth inhibition, MTT, 72 h; type: cell-based; conditions: Homo sapiens, U-87 MG
Method: as §2

IC50 [µg/mL] | IC90 [µg/mL] | SMILES
0.78 (≈ 1.65 µM) | 3.21 (≈ 6.79 µM) | C=C1C(=O)[C@]23[C@H](OC(=O)c4cccs4)[C@H]1CC[C@H]2[C@@]12CO[C@@]3(O)[C@@H](O)[C@@H]1C(C)(C)CCC2=O [BS-OR-007]

test system: PC-3; experiment: Solid tumor cell growth inhibition, MTT, 72 h; type: cell-based; conditions: Homo sapiens
Method: as §2

IC50 [µg/mL] | IC90 [µg/mL] | SMILES
1.69 (≈ 3.58 µM) | 4.6 (≈ 9.73 µM) | C=C1C(=O)[C@]23[C@H](OC(=O)c4cccs4)[C@H]1CC[C@H]2[C@@]12CO[C@@]3(O)[C@@H](O)[C@@H]1C(C)(C)CCC2=O [BS-OR-007]

test system: PANC-1; experiment: Solid tumor cell growth inhibition, MTT, 72 h; type: cell-based; conditions: Homo sapiens
Method: as §2

IC50 [µg/mL] | IC90 [µg/mL] | SMILES
1.63 (≈ 3.45 µM) | 8.55 (≈ 18.1 µM) | C=C1C(=O)[C@]23[C@H](OC(=O)c4cccs4)[C@H]1CC[C@H]2[C@@]12CO[C@@]3(O)[C@@H](O)[C@@H]1C(C)(C)CCC2=O [BS-OR-007]

test system: NB4; experiment: Leukemia cell growth inhibition, MTT, 72 h; type: cell-based, human; conditions: Homo sapiens, NB-4; 72 h, MTT
Text: (§3) Leukemia cell lines: leukemia cell lines: K562/adr (drug-resistant, chronic myeloid leukemia, CML), NB4 (acute promyelocytic leukemia, AML), Kasumi-1 (acute myeloid leukemia M2 type, AML-M2), Jurkat (acute lymphoblastic leukemia, ALL), all of which were donated by Cancer Research Institute of Zhejiang University, China; and H9 (acute lymphoblastic leukemia, ALL), which was purchased from China Center for Type Culture Collection.
as §1, with “6000 well-growing leukemia cells were” for “6000 well-growing cells were”, “C. and was incubated for” for “C. and incubated for”

IC50 [µg/mL] | IC90 [µg/mL] | SMILES
0.08 (≈ 0.169 µM) | 0.47 (≈ 0.995 µM) | C=C1C(=O)[C@]23[C@H](OC(=O)c4cccs4)[C@H]1CC[C@H]2[C@@]12CO[C@@]3(O)[C@@H](O)[C@@H]1C(C)(C)CCC2=O [BS-OR-007]

test system: H9; experiment: Leukemia cell growth inhibition, MTT, 72 h; type: cell-based, human; conditions: Homo sapiens, H9; 72 h, MTT
Text: as §3
as §1, with “6000 well-growing leukemia cells were” for “6000 well-growing cells were”, “C. and was incubated for” for “C. and incubated for”

IC50 [µg/mL] | IC90 [µg/mL] | SMILES
0.41 (≈ 0.868 µM) | 0.92 (≈ 1.95 µM) | C=C1C(=O)[C@]23[C@H](OC(=O)c4cccs4)[C@H]1CC[C@H]2[C@@]12CO[C@@]3(O)[C@@H](O)[C@@H]1C(C)(C)CCC2=O [BS-OR-007]

test system: Jurkat; experiment: Leukemia cell growth inhibition, MTT, 72 h; type: cell-based, human; conditions: Homo sapiens, Jurkat; 72 h, MTT
Text: as §3
as §1, with “6000 well-growing leukemia cells were” for “6000 well-growing cells were”, “C. and was incubated for” for “C. and incubated for”

IC50 [µg/mL] | IC90 [µg/mL] | SMILES
0.71 (≈ 1.5 µM) | 4.45 (≈ 9.42 µM) | C=C1C(=O)[C@]23[C@H](OC(=O)c4cccs4)[C@H]1CC[C@H]2[C@@]12CO[C@@]3(O)[C@@H](O)[C@@H]1C(C)(C)CCC2=O [BS-OR-007]

test system: K562/ADR; experiment: Leukemia cell growth inhibition, MTT, 72 h; type: cell-based; conditions: Homo sapiens
Text: as §3
as §1, with “6000 well-growing leukemia cells were” for “6000 well-growing cells were”, “C. and was incubated for” for “C. and incubated for”

IC50 [µg/mL] | IC90 [µg/mL] | SMILES
0.47 (≈ 0.995 µM) | 1.86 (≈ 3.94 µM) | C=C1C(=O)[C@]23[C@H](OC(=O)c4cccs4)[C@H]1CC[C@H]2[C@@]12CO[C@@]3(O)[C@@H](O)[C@@H]1C(C)(C)CCC2=O [BS-OR-007]

test system: Kasumi-1; experiment: Leukemia cell growth inhibition, MTT, 72 h; type: cell-based; conditions: Homo sapiens
Text: as §3
as §1, with “6000 well-growing leukemia cells were” for “6000 well-growing cells were”, “C. and was incubated for” for “C. and incubated for”

IC50 [µg/mL] | IC90 [µg/mL] | SMILES
0.71 (≈ 1.5 µM) | 1.76 (≈ 3.72 µM) | C=C1C(=O)[C@]23[C@H](OC(=O)c4cccs4)[C@H]1CC[C@H]2[C@@]12CO[C@@]3(O)[C@@H](O)[C@@H]1C(C)(C)CCC2=O [BS-OR-007]
